{"source": "ChEMBL document CHEMBL6182844", "about": "“LC-MS Guided Discovery and Biosynthetic Pathway of Coprisamides E-H, Cinnamic Acid-Containing Metabolites from the Marine Algae-Derived Streptomyces thermolineatus NAK03196” (2025)", "details_in_all_cases": "time 12-16 hrs", "key": {"Staphylococcus aureus [1]": {"system": "Staphylococcus aureus", "assay": "Antibacterial activity against the Staphylococcus aureus 16339 incubated for 12 to 16 hrs by paper disc diffusion assay", "assay_type": "functional"}, "Enterococcus faecalis": {"system": "Enterococcus faecalis", "assay": "Antibacterial activity against Enterococcus faecalis assessed as inhibition on the growth incubated for 12 to 16 hrs by paper disc diffusion assay", "assay_type": "functional, organism-based"}, "Micrococcus luteus": {"system": "Micrococcus luteus", "assay": "Antibacterial activity against Micrococcus luteus assessed as inhibition on the growth incubated for 12 to 16 hrs by paper disc diffusion assay", "assay_type": "functional, organism-based"}, "Acinetobacter baumannii": {"system": "Acinetobacter baumannii", "assay": "Antibacterial activity against Acinetobacter baumannii assessed as inhibition on the growth incubated for 12 to 16 hrs by paper disc diffusion assay", "assay_type": "functional, organism-based"}, "Escherichia coli": {"system": "Escherichia coli", "assay": "Antibacterial activity against Escherichia coli assessed as inhibition on the growth incubated for 12 to 16 hrs by paper disc diffusion assay", "assay_type": "functional, organism-based"}, "Pseudomonas aeruginosa": {"system": "Pseudomonas aeruginosa", "assay": "Antibacterial activity against Pseudomonas aeruginosa assessed as inhibition on the growth incubated for 12 to 16 hrs by paper disc diffusion assay", "assay_type": "functional, organism-based"}, "Klebsiella pneumoniae": {"system": "Klebsiella pneumoniae", "assay": "Antibacterial activity against Klebsiella pneumoniae assessed as inhibition on the growth incubated for 12 to 16 hrs by paper disc diffusion assay", "assay_type": "functional, organism-based"}, "Staphylococcus aureus [2]": {"system": "Staphylococcus aureus", "assay": "Antibacterial activity against methicillin-resistant Staphylococcus aureus ATCC 43300 assessed as inhibition on the growth incubated for 12 to 16 hrs by paper disc diffusion assay", "assay_type": "functional, organism-based"}, "Staphylococcus aureus [3]": {"system": "Staphylococcus aureus", "assay": "Antibacterial activity against Staphylococcus aureus ATCC 29213 assessed as inhibition on the growth incubated for 12 to 16 hrs by paper disc diffusion assay", "assay_type": "functional, organism-based"}}, "note": "Active and inactive are the calls of the source. No cut-off for these calls is given here."}
{"smiles": "C/C=C/C=C/C=C\\c1ccccc1/C=C/C(=O)N[C@H](C)C(=O)N[C@@H]1COC(=O)[C@H](CC(=O)O)NC(=O)[C@H](CNC(=O)[C@@H](N)C(C)C)NC(=O)[C@H](C(C)C)NC(=O)[C@@H](CC(C)C)NC1=O", "values": [{"measurement": "MIC", "setting": "Staphylococcus aureus [1]", "result": 890, "unit": "µg/mL"}, {"measurement": "inhibition", "setting": "Enterococcus faecalis", "result": "inactive"}, {"measurement": "inhibition", "setting": "Micrococcus luteus", "result": "inactive"}, {"measurement": "inhibition", "setting": "Acinetobacter baumannii", "result": "inactive"}, {"measurement": "inhibition", "setting": "Escherichia coli", "result": "inactive"}, {"measurement": "inhibition", "setting": "Pseudomonas aeruginosa", "result": "inactive"}, {"measurement": "inhibition", "setting": "Klebsiella pneumoniae", "result": "inactive"}, {"measurement": "inhibition", "setting": "Staphylococcus aureus [2]", "result": "inactive"}, {"measurement": "inhibition", "setting": "Staphylococcus aureus [3]", "result": "inactive"}]}
{"smiles": "CN(C)[C@@H]1C(O)=C(C(N)=O)C(=O)[C@@]2(O)C(O)=C3C(=O)c4c(O)cccc4[C@@](C)(O)[C@H]3C[C@@H]12", "note": "[TETRACYCLINE]", "values": [{"measurement": "MIC", "setting": "Staphylococcus aureus [1]", "result": 10, "unit": "µg/mL"}]}
